87 sequences from the OligoGym collection can be followed below.

Values joined by “and” are separate entries in the source; they are usually repeats but may differ in a detail not shown here. Equal entries are not always repeated. After the bases stand the sugars from the 5' end (letter, count) and the backbone: PS all phosphorothioate, else s phosphorothioate and o phosphodiester by linkage. Methylation of C is not given here. e = 2'-O-(2-methoxyethyl) (MOE); k = constrained ethyl (cEt); d = 2'-deoxy (DNA)

The data set deals with IRF4. To be noted: ASO.

Consider GCATAGGTCCTTCAGA (sugars k3 d10 k3, PS), for which, where the note is “SK-MEL-28, 4 µM”, the target mRNA inhibition is 31%.
Still for that read-out and setting: next, AGACATACCTACAAGC (sugars k3 d10 k3, PS): 50%.
“TGTAGTATGAGAAACG (sugars kkddddddddddkeke, PS)”: for the setting “MM.1R, 1 µM”, the target mRNA inhibition turned out to be 10%.
Still for that read-out and setting: next, TAACAGATAACGAGGT (sugars k3 d10 k3, PS): 12%; “GTAGTATGAGAAACGG (sugars kkdddddddddkekek, PS)”: 50%; “AAGTTCATGTAAAGTC (sugars kkdddddddddkdkdk, PS)”: 32% and 34%.
On the same count and under the same terms, the result for AGCTAGCGCGCACTAA (sugars k3 d10 k3, PS) reads -8%.
On to AAAACTACTATTGTGG (sugars k3 d10 k3, PS), for which the target mRNA inhibition (SK-MEL-28, 4 µM) came to 14%.
Still for that read-out and setting: next, CACATTAAAGGGTAAG (sugars k3 d10 k3, PS): -1%.
Same read-out and setting: next, ACGCAGCCTCTAAGAA (sugars k3 d10 k3, PS): 25%; TCAATGGGAATCACAG (sugars k3 d10 k3, PS): 40%; GTCTACTTGAGTCTGT (sugars k3 d10 k3, PS): 51%.
The same measure, in the same setting: next, GGGTCCTCCGCCCGCT (sugars k3 d10 k3, PS): 28%.
Turning to CAGAAATCACGAGGTT (sugars k3 d10 k3, PS), the target mRNA inhibition (MM.1R, 1 µM) turned out to be 25%.
The same measure, in the same setting: next, “CAAGCAGTGATGTCAG (sugars kkdddddddddkekek, PS)”: 51% and 52%.
GTGACTGGAGAGCAAT (sugars k3 d10 k3, PS): the target mRNA inhibition (SK-MEL-28, 4 µM) is 74%.
On the same count and under the same terms, next, CACATAACTCAGGCAA (sugars k3 d10 k3, PS): 37%.
In the case of “CAAGTGTCTAAAGTCC (sugars kdddddddddkekeke, PS)”, the target mRNA inhibition (MM.1R, 1 µM) was 11% and 10%.
As to CGCAAGTCTACAGCCC (sugars k3 d10 k3, PS), the target mRNA inhibition is, setting by setting: (MM.1R, 0.0625 µM) 0%; (MM.1R, 0.074 µM) -7%; (MM.1R, 0.222 µM) -9%; (MM.1R, 0.25 µM) 1%; (MM.1R, 0.666 µM) -9%; (MM.1R, 1 µM) 6%. In addition, the target mRNA inhibition is, setting by setting: (MM.1R, 2 µM) 8%; (MM.1R, 4 µM) 12%; (SK-MEL-28, 4 µM) 59%.
On to “GCACATCAATGTTTTA (sugars kddddddddddkekek, PS)”, for which the target mRNA inhibition (MM.1R, 1 µM) is 13% and 0%.
On the same count and under the same terms, the result for “CTTGATAAAGGCTGAA (sugars kkddddddddddkeke, PS)” reads 4%.
For the sequence AGCATTTTATCATCCG (sugars k3 d10 k3, PS), for the setting “SK-MEL-28, 4 µM”, the target mRNA inhibition was 81%.
Still for that read-out and setting: the result for ACACAGCCTCGCCCTC (sugars k3 d10 k3, PS) reads 20%.
On the same count and under the same terms, the result for AGGGAGACAGCTCTAG (sugars k3 d10 k3, PS) reads 25%.
CCTATCACTGCCAAGT (sugars k3 d10 k3, PS): the target mRNA inhibition (MM.1R, 1 µM) is -3%.
Consider ATCAGATACACACCCT (sugars k3 d10 k3, PS), for which the target mRNA inhibition (SK-MEL-28, 4 µM) was -8%.
Consider GCTGTGTGTCAAAGAG (sugars k3 d10 k3, PS), for which the target mRNA inhibition (SK-MEL-28, 4 µM) amounted to 6%.
As for TGGAACTCTAGTGTCC (sugars k3 d10 k3, PS), the target mRNA inhibition (SK-MEL-28, 4 µM) was determined as 2%.
For “CCTCAGTTTGTGAAGC (sugars e1 k2 d9 k2 e2, PS)”, the target mRNA inhibition (MM.1R, 1 µM) turned out to be 11%.
In the case of ACCCTCCCCAACTTAA (sugars k3 d10 k3, PS), the target mRNA inhibition (SK-MEL-28, 4 µM) was found to be 10%.
Consider TCTTCCAGCAAGACCT (sugars k3 d10 k3, PS), for which, for the setting “SK-MEL-28, 4 µM”, the target mRNA inhibition was 28%.
For the sequence TCCAACCCTAGATAAC (sugars k3 d10 k3, PS), the target mRNA inhibition (MM.1R, 1 µM) was -5%.
GGCCGGAGACCTTGAA (sugars k3 d10 k3, PS): the target mRNA inhibition (SK-MEL-28, 4 µM) came to 3%.
Consider “AGTATGAGAAACGGCC (sugars kddddddddddkekek, PS)”, for which the target mRNA inhibition (MM.1R, 1 µM) stood at 10%.
Turning to “ATGTGATAGCTGAGCT (sugars kkddddddddddkeke, PS)”, the target mRNA inhibition (MM.1R, 1 µM) turned out to be 4%.
In the case of GCCCATGTGAGCTCTT (sugars k3 d10 k3, PS), the target mRNA inhibition (SK-MEL-28, 4 µM) worked out at 50%.
With TAAGCAAGTGGAGGTC (sugars k3 d10 k3, PS), the target mRNA inhibition (SK-MEL-28, 4 µM) stood at 47%.
Still for that read-out and setting: the result for TTGTCTGGCTAGCAGA (sugars k3 d10 k3, PS) reads 45%; that for GATACAGCAGGCACTT (sugars k3 d10 k3, PS), 63%.
With TGGCATGCGAATGTGC (sugars k3 d10 k3, PS), where the note is “MM.1R, 1 µM”, the target mRNA inhibition was -21%.
For the sequence GTCTTAAGGGTTCAAG (sugars k3 d10 k3, PS), the target mRNA inhibition (SK-MEL-28, 4 µM) was found to be 49%.
On the same count and under the same terms, next, ACACACCTGACAACCA (sugars k3 d10 k3, PS): 36%; CCTCAGTTTGTGAAGC (sugars k3 d10 k3, PS): 69%.
As to “ACTTTTAGAGAGGAGA (sugars kdddddddddkekeke, PS)”, the target mRNA inhibition (MM.1R, 1 µM) was found to be 17%.
Take ACTCACTAAAGACTAT (sugars k3 d10 k3, PS): the target mRNA inhibition (SK-MEL-28, 4 µM) was 18%.
Same read-out and setting: the result for TAAACTTGGCTGTGGG (sugars k3 d10 k3, PS) reads 27%.
For the sequence “GCACATCAATGTTTTA (sugars kkdddddddddkdkdk, PS)”, the target mRNA inhibition (MM.1R, 1 µM) was 11% and 7%.
On the same count and under the same terms, the result for AGAGAGTCCGACGCAC (sugars k3 d10 k3, PS) reads -18%; that for CCTTCAGATTTACACC (sugars k3 d10 k3, PS), -9%.
Take ACGACTTAAGCTAAAC (sugars k3 d10 k3, PS): the target mRNA inhibition (SK-MEL-28, 4 µM) was 58%.
Regarding “TGATGTGATAGCTGAG (sugars kkdddddddddkdkdk, PS)”, the target mRNA inhibition (MM.1R, 1 µM) is 14%.
Consider AGTCACGCAATGGCAA (sugars k3 d10 k3, PS), for which the target mRNA inhibition (SK-MEL-28, 4 µM) was 50%.
Regarding “CTCTATAGTGTTCCAG (sugars kdddddddddkekeke, PS)”, the target mRNA inhibition (MM.1R, 1 µM) stood at 11%.
On the same count and under the same terms, the result for GGCGACGACAGCTGCG (sugars k3 d10 k3, PS) reads -15%.
On to GGAACAAAAGGTTCCC (sugars k3 d10 k3, PS), for which the target mRNA inhibition (SK-MEL-28, 4 µM) was 12%.
Turning to GTGACATAAAGGACCC (sugars k3 d10 k3, PS), the target mRNA inhibition (MM.1R, 1 µM) turned out to be 10%.
On to ACAATAAAATGTCACG (sugars k3 d10 k3, PS), for which the target mRNA inhibition (SK-MEL-28, 4 µM) came to 29%.
As to GCCAAGGATAACCTGA (sugars k3 d10 k3, PS), the target mRNA inhibition is, setting by setting: (MM.1R, 0.0625 µM) 1%; (MM.1R, 0.074 µM) 0%; (MM.1R, 0.222 µM) 5%; (MM.1R, 0.25 µM) 10%; (MM.1R, 0.666 µM) 13%; (MM.1R, 1 µM) 27%. In addition, the target mRNA inhibition runs as follows: (MM.1R, 2 µM) 37%; (MM.1R, 4 µM) 59%; (SK-MEL-28, 4 µM) 69%.
Turning to GAAGAGATCAGCTGCC (sugars k3 d10 k3, PS), the target mRNA inhibition (SK-MEL-28, 4 µM) was found to be 42%.
The same measure, in the same setting: next, GGCACGAGGAAGCATA (sugars k3 d10 k3, PS): 62%; TACAAAACGGACTGGA (sugars k3 d10 k3, PS): 38%.
Consider AATAAGCTCATCTGCC (sugars k3 d10 k3, PS), for which the target mRNA inhibition (SK-MEL-28, 4 µM) came to 36%.
The same measure, in the same setting: the result for CAGTTGTAAATGAGTC (sugars k3 d10 k3, PS) reads 89% and 86%.
On to GTCTGAGGGAATCTGC (sugars k3 d10 k3, PS), for which the target mRNA inhibition (SK-MEL-28, 4 µM) is 49%.
As to GGCCTTGCCAGTGGTG (sugars k4 d8 k4, PS), the target mRNA inhibition (SK-MEL-28, 4 µM) was 6%.
Regarding “TCTATAGTGTTCCAGG (sugars e1 k2 d9 k2 e2, PS)”, the target mRNA inhibition reads like this: (MM.1R, 0.074 µM) 22%; (MM.1R, 0.222 µM) 33%; (MM.1R, 0.666 µM) 52%; (MM.1R, 1 µM) 58%; (MM.1R, 2 µM) 74%.
For the sequence AGGCTCCTACCCGCCT (sugars k3 d10 k3, PS), for the setting “SK-MEL-28, 4 µM”, the target mRNA inhibition was found to be 6%.
Still for that read-out and setting: the result for ATCCAGAGGACCACGC (sugars k3 d10 k3, PS) reads 19%.
As to GAGGACTTATTTGTGG (sugars k3 d10 k3, PS), the target mRNA inhibition (MM.1R, 1 µM) amounted to 22%.
Same read-out and setting: next, “TCTATAGTGTTCCAGG (sugars k3 d9 k3 e1, PS)”: 52%.
Consider ACACACAAGTGGCCTT (sugars k3 d10 k3, PS), for which the target mRNA inhibition (SK-MEL-28, 4 µM) worked out at 44%.
Still for that read-out and setting: the result for AGTCAGTGTCAATACT (sugars k3 d10 k3, PS) reads 47%.
With GGAACTAGTCGACAGC (sugars k3 d10 k3, PS), the target mRNA inhibition (MM.1R, 1 µM) came out at 18%.
Take CATCACTTGGTCAATT (sugars k3 d10 k3, PS): the target mRNA inhibition (SK-MEL-28, 4 µM) amounted to 29%.
With TACACTTTGTACGGGT (sugars k3 d10 k3, PS), the target mRNA inhibition (SK-MEL-28, 4 µM) came to 28%.
On the same count and under the same terms, next, CTTAGGAACGAAGAGC (sugars k3 d10 k3, PS): 7%.
For the sequence “AATGTGTATTACTCTT (sugars kkdddddddddkdkdk, PS)”, for the setting “MM.1R, 1 µM”, the target mRNA inhibition is 10% and 15%.
On the same count and under the same terms, next, GCGACTGCTGAAAACC (sugars k3 d10 k3, PS): -4%; GCAAGTGTCTAAAGTC (sugars k3 d10 k3, PS): 49% and 53%.
Take GAACGCACGGACGAAC (sugars k3 d10 k3, PS): the target mRNA inhibition (SK-MEL-28, 4 µM) worked out at 18%.
Same read-out and setting: the result for GAAATGGAGCATCCGC (sugars k3 d10 k3, PS) reads 32%.
Turning to “AGTGACTTGCATCCAT (sugars k2 d9 e3 k2, PS)”, the target mRNA inhibition (MM.1R, 1 µM) stood at 52%.
Same read-out and setting: the result for CTTAGAATGAGAGGTG (sugars k3 d10 k3, PS) reads 1%; that for GGTACGGGATTTCCGG (sugars k3 d10 k3, PS), 12%; that for GCCACCGACTCTTTTT (sugars k3 d10 k3, PS), -5%.
In the case of ATCCTGTAGTATGAGA (sugars k3 d10 k3, PS), under “SK-MEL-28, 4 µM”, the target mRNA inhibition was 45%.
Take TTATGCCATGGACAAG (sugars k3 d10 k3, PS): the target mRNA inhibition (MM.1R, 1 µM) is 19%.
